Assay results taken from US20160050929A1, “METHODS OF CONTROLLING NEONICOTINOID RESISTANT PESTS” (SYNGENTA PARTICIPATIONS AG, priority 2013, published 2016).

Test system: Orius laevigatus
Assay: Safety to beneficial species: test on Orius laevigatus
Type: in vivo
Settings: Orius laevigatus adults; for Corrected Mortality (%) 2 DAI: 2 days after infestation; for Corrected Mortality (%) 4 DAI: 4 days after infestation
Method: Phaseolus vulgaris var. Fulvio (french bean) plants were reduced to one leaf. With the leaves held in a horizontal position, a track sprayer was used to treat the plants at a rate corresponding to […]. Once dry, leaf discs were collected from the plants and placed treated side up in petri dishes containing 1% water agar.
A paper triangle was added for shelter, and a suitable amount of Ephestia eggs were added as a food supply. Five (5) Orius laevigatus (predatory bug, Syngenta Bioline) adults were added and the dishes closed with a cotton filter and perforated plastic lid. The dishes were incubated in a climate chamber at 25° C., 75% relative humidity, 16:8 h light/dark regime.
Six replicates were provided for each treatment and concentration level. The number of living and dead Orius laevigatus were counted two and four days after infestation (DAI). At the day two evaluation the food supply was replenished.

SMILES: C#CCN1[C@@H]2CC[C@H]1C[C@](C#N)(c1cncc(C#C)c1)C2 [Compound 1.070]
- Corrected Mortality (%) 2 DAI (rate 50 ppm): 0%
- Corrected Mortality (%) 4 DAI (rate 50 ppm): 0%
- Corrected Mortality (%) 2 DAI (rate 100 ppm): 0%
- Corrected Mortality (%) 4 DAI (rate 100 ppm): 0%
- Corrected Mortality (%) 2 DAI (rate 200 ppm): 0%
- Corrected Mortality (%) 4 DAI (rate 200 ppm): 0%

SMILES: O=[N+]([O-])NC1=NCCN1Cc1ccc(Cl)nc1 [Imidacloprid, imidacloprid]
- Corrected Mortality (%) 2 DAI (rate 50 ppm): 11%
- Corrected Mortality (%) 4 DAI (rate 50 ppm): 30%
- Corrected Mortality (%) 2 DAI (rate 100 ppm): 43%
- Corrected Mortality (%) 4 DAI (rate 100 ppm): 65%
- Corrected Mortality (%) 2 DAI (rate 200 ppm): 75%
- Corrected Mortality (%) 4 DAI (rate 200 ppm): 100%
